# Literature values, collected in US20050266049A1, “Method for the covering of food with polyene antifungal compositions” (D S M IP Assets B.V., priority 2002, published 2005).
smiles,measurement,setting,value
C[C@@H]1C/C=C/C=C/C=C/C=C/[C@H](O[C@@H]2O[C@H](C)[C@@H](O)[C@H](N)[C@@H]2O)C[C@@H]2O[C@](O)(C[C@@H](O)C[C@H]3O[C@@H]3/C=C/C(=O)O1)C[C@H](O)[C@H]2C(=O)O [natamycin],solubility of natamycin in water,,30-50 ppm
same,Minimal Inhibitory Concentration (MIC),most foodborn fungi,less than 10 ppm
